According to the supplement of paper PMC8967900:

What was measured:
Test in all cases: selective drug sensitivity score (sDSS, relative to normal bone marrow) (sDSS (score)); higher = more potent and effective on the cell line relative to normal bone marrow cells
Conditions in all cases: 72 h
[1] = test system: MHH-CALL-2
[2] = test system: PF-382
[3] = test system: KOPN-8
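Also: ALL cell lines in 384-well plates, five doses spanning 10,000-fold, each plate scaled between vehicle and 100 µmol/L benzalkonium chloride controls, sDSS an adapted area-under-curve metric.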

Row | Structure (SMILES) | selective drug sensitivity score [1] | selective drug sensitivity score [2] | selective drug sensitivity score [3]
1 | CNC(=O)c1ccc(C)c(-n2c(C)cc(OCc3ccc(F)cc3F)c(Br)c2=O)c1 (top concentration 1000 nM) | 4.9 | 0 | 0.7
2 | CONC(=O)c1ccccc1Nc1cc(Nc2cc(C)nn2C(C)C)ncc1Cl (top concentration 1000 nM) | -0.94 | -0.94 | 3.86
3 | CCOc1ccn(-c2ccc(F)cc2)c(=O)c1C(=O)Nc1ccc(Oc2ccnc(N)c2Cl)c(F)c1 (top concentration 2500 nM) | 0 | 0 | 0
4 | CC[C@@H]1[C@H](F)C(=O)N[C@@H]1COc1nccc2cc(C(N)=O)c(OC)cc12 (top concentration 10000 nM) | -0.22 | -0.42 | 1.78
5 | C[C@H]1C[C@@H](n2c(Nc3ccc(OC(F)(F)F)cc3)nc3cc(CCC(=O)O)ccc32)CC(C)(C)C1 (top concentration 10000 nM) | 0.96 | 0.66 | 0.06
6 | O=C(NCc1ccncc1)C12CC3CC(C1)CC(c1ccc(Cl)cc1)(C3)C2 (top concentration 50000 nM) | 4.38 | 0.48 | 4.48
7 | O=C(O)c1ccc(CN2CCC(CN[C@@H]3C[C@H]3c3ccccc3)CC2)cc1 (top concentration 100000 nM) | -0.02 | -0.42 | -0.62
8 | COc1cc(N2CCN(C)CC2)ccc1Nc1nccc(-c2cn(C)c3cnccc23)n1 [AZ191] (top concentration 10000 nM) | 3.88 | -1.82 | 2.18
9 | Cc1cc(Nc2nc(N[C@@H](C)c3ncc(F)cn3)ncc2Cl)[nH]n1 [AZD1480] (top concentration 1000 nM) | -1.38 | -4.08 | -4.28
10 | COc1cc(CCc2cc(NC(=O)c3ccc(N4CC(C)NC(C)C4)cc3)n[nH]2)cc(OC)c1 (stereo not drawn) [AZD4547] (top concentration 1000 nM) | -0.14 | -0.14 | -0.14
11 | CN(C)C(=O)c1ccc(S(=O)(=O)c2ccc(NC(=O)[C@@](C)(O)C(F)(F)F)c(Cl)c2)cc1 [AZD7545] (top concentration 10000 nM) | -0.2 | 3.1 | 3.1
12 | COc1cc(C)c(/C=C/C(C)=C/C=C/C(C)=C/C(=O)O)c(C)c1C [Acitretin] (top concentration 10000 nM) | -0.7 | -1.4 | 1.8
13 | CCC1(c2ccc(N)cc2)CCC(=O)NC1=O (stereo not drawn) [Aminoglutethimide] (top concentration 10000 nM) | 2.4 | 0 | 0
14 | CNC(=O)c1ccc(N2C(=S)N(c3cnc(C#N)c(C(F)(F)F)c3)C(=O)C23CCC3)cc1F [Apalutamide] (top concentration 10000 nM) | 0 | 0 | 0
15 | N#CC1(c2ccc(NC(=O)c3cccnc3NCc3ccncc3)cc2)CCCC1 [Apatinib] (top concentration 10000 nM) | 1.2 | 0 | 0.1
16 | Cc1nc2cccc(N)c2c(=O)n1C1CCC(=O)NC1=O (stereo not drawn) [Avadomide (CC122)] (top concentration 10000 nM) | 0 | 0 | 1.3

Row | Structure (SMILES) | selective drug sensitivity score [1] | selective drug sensitivity score [2] | selective drug sensitivity score [3]
17 | Nc1nc(Nc2ccc3c(c2)CC[C@@H](N2CCCC2)CC3)nn1-c1cc2c(nn1)-c1ccccc1CCC2 [BGB324] (top concentration 10000 nM) | -1.58 | 0.32 | 0.02
18 | CC1(C)C(C(=O)Nc2ccc(S(=O)(=O)c3ccc(NC(=O)C4C(C)(C)C4(C)C)cc3)cc2)C1(C)C [BRD7116] (top concentration 10000 nM) | 0.16 | 0.36 | -0.24
19 | CCS(=O)(=O)N1CC(CC#N)(n2cc(-c3ncnc4[nH]ccc34)cn2)C1 [Baricitinib] (top concentration 2500 nM) | -1.94 | -1.94 | -1.94
20 | CC(O)(CS(=O)(=O)c1ccc(F)cc1)C(=O)Nc1ccc(C#N)c(C(F)(F)F)c1 (stereo not drawn) [Bicalutamide] (top concentration 10000 nM) | -1.68 | -1.38 | 4.92
21 | COc1cc(Nc2c(C#N)cnc3cc(OCCCN4CCN(C)CC4)c(OC)cc23)c(Cl)cc1Cl [Bosutinib] (top concentration 10000 nM) | 7.66 | 4.76 | 4.56
22 | Cc1cc2c(F)c(Oc3ncnn4cc(OC[C@@H](C)O)c(C)c34)ccc2[nH]1 [Brivanib] (top concentration 1000 nM) | -0.04 | 0.06 | 0.16
23 | Cc1ccc(-c2cc(C(F)(F)F)nn2-c2ccc(S(N)(=O)=O)cc2)cc1 [Celecoxib] (top concentration 10000 nM) | 0.34 | 0.24 | 0.74
24 | N.N.[Cl][Pt][Cl] [Cisplatin] (top concentration 100000 nM) | 14.6 | 10.2 | 21.7
25 | Cc1c2oc3c(C)ccc(C(=O)N[C@@H]4C(=O)N[C@H](C(C)C)C(=O)N5CCC[C@H]5C(=O)N(C)CC(=O)N(C)[C@@H](C(C)C)C(=O)O[C@@H]4C)c3nc-2c(C(=O)N[C@@H]2C(=O)N[C@H](C(C)C)C(=O)N3CCC[C@H]3C(=O)N(C)CC(=O)N(C)[C@@H](C(C)C)C(=O)O[C@@H]2C)c(N)c1=O [Dactinomycin] (top concentration 1000 nM) | 12.4 | 3.64 | 17.8
26 | O=C(O)CCCCC(CCSCc1ccccc1)SCc1ccccc1 (stereo not drawn) [Devimistat (CPI-613)] (top concentration 10000 nM) | 0.8 | 0 | 0
27 | CC(=O)O[C@@]12CO[C@@H]1C[C@H](O)[C@@]1(C)C(=O)[C@H](O)C3=C(C)[C@@H](OC(=O)[C@H](O)[C@@H](NC(=O)OC(C)(C)C)c4ccccc4)C[C@@](O)([C@@H](OC(=O)c4ccccc4)[C@H]21)C3(C)C [Docetaxel] (top concentration 1000 nM) | 18.6 | 10.5 | 23.7
28 | Cc1ccc(-n2nc(C(C)(C)C)cc2NC(=O)Nc2ccc(OCCN3CCOCC3)c3ccccc23)cc1 [Doramapimod] (top concentration 10000 nM) | 4.56 | 0.46 | 3.76
29 | Cc1ccc(NS(=O)(=O)c2cccc(C#N)c2)c2[nH]cc(C#N)c12 [E7820] (top concentration 50000 nM) | 19.4 | 10.2 | 19.8
30 | C[C@@H]1CN(C(=O)c2ccc(NC(=O)c3cc(O[C@H](C)c4c(Cl)ccc(F)c4Cl)c(N)nn3)cc2)C[C@H](C)N1 [Ensartinib] (top concentration 1000 nM) | -2.84 | -2.64 | 1.16
31 | c1cn2cc(-c3ccc4cn[nH]c4c3)nc(Nc3ccc(N4CCOCC4)cc3)c2n1 [Entospletinib] (top concentration 5000 nM) | -0.64 | -0.64 | 1.46
